IC50 and GI50 data for 13 compounds are collected here from US20250188040A1, “PHARMACEUTICAL COMPOSITIONS COMPRISING WRN HELICASE INHIBITORS” (Vividion Therapeutics, Inc., priority 2022, published 2025).

Structures are written as SMILES. Read-outs that look alike come from different tables or passages of the source. Some results are limits rather than exact numbers.

For assay [1], the target named is T1, WRN C727 (Homo sapiens, UniProt Q14191).
T1 construct: endogenous in cells; host or cells: OCI-AML2
The experiment in a line: Target engagement, in vitro (lysate), OCI-AML2. The class given is binding. The note with it: read-out: OCI-AML2 WRN C727 TE50 in vitro (lysate). Put shortly: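 Percent engagement of WRN C727 is expressed against DMSO-treated samples, measured by PRM mass spectrometry of streptavidin-enriched, probe-tagged tryptic peptides. Compound dose responses preceded probe labelling of solvent-exposed cysteines, in either living OCI-AML2 cells or their lysates.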

Assay [2] addresses T1, WRN C727. The experiment in a line: Target engagement, in situ (cell), OCI-AML2. The conditions noted are these: OCI-AML2 cells, read-out: OCI-AML2 WRN C727 TE50 in situ (cell). The class given is cell-based. As for the experimental part: Cells or cell lysates were treated with a dose response of compound followed by probe treatment, which labels solvent exposed cysteines. Proteins were enzymatically digested with trypsin and probe-labelled peptides were enriched with streptavidin. Isolated peptides were then separated using reversed-phase liquid chromatography on a C18 column (Dionex Ultimated 3000 nano-LC, Thermo). Peptides were analyzed by parallel reaction monitoring mass spectrometry (Exploris 120, Thermo).
Target engagement (%) is calculated relative to DMSO treated control samples.

For assay [3], the system named is SW480 cells. The experiment in a line: Cell growth assay (CellTiter-Glo 2.0), SW480 MSS cell line. The note with it: Homo sapiens, SW480, 120 h, read-out: Cell Growth Inhibition GI50 SW480. A general note: In ATP-based viability assays light output follows the ATP content of the culture.
Assay [4] has as its target hWRN(519-1227)_C-H3CV-GFP-10His (Homo sapiens, UniProt Q14191). The experiment in a line: Helicase Assay for WRN Inhibition (ATP-dependent, fluorescence based).
The subject of assay [5] is HCT 116 cells. The experiment in a line: Cell growth assay (CellTiter-Glo 2.0), HCT 116 MSI-H cell line. The note with it: Homo sapiens, HCT-116, 120 h, read-out: Cell Growth Inhibition GI50 HCT-116.
The mark [6] stands for this setting: WRN Helicase IC50, 30 min preincubation with ATP, 30 min reaction.

T1 sequence (Q14191 whole entry): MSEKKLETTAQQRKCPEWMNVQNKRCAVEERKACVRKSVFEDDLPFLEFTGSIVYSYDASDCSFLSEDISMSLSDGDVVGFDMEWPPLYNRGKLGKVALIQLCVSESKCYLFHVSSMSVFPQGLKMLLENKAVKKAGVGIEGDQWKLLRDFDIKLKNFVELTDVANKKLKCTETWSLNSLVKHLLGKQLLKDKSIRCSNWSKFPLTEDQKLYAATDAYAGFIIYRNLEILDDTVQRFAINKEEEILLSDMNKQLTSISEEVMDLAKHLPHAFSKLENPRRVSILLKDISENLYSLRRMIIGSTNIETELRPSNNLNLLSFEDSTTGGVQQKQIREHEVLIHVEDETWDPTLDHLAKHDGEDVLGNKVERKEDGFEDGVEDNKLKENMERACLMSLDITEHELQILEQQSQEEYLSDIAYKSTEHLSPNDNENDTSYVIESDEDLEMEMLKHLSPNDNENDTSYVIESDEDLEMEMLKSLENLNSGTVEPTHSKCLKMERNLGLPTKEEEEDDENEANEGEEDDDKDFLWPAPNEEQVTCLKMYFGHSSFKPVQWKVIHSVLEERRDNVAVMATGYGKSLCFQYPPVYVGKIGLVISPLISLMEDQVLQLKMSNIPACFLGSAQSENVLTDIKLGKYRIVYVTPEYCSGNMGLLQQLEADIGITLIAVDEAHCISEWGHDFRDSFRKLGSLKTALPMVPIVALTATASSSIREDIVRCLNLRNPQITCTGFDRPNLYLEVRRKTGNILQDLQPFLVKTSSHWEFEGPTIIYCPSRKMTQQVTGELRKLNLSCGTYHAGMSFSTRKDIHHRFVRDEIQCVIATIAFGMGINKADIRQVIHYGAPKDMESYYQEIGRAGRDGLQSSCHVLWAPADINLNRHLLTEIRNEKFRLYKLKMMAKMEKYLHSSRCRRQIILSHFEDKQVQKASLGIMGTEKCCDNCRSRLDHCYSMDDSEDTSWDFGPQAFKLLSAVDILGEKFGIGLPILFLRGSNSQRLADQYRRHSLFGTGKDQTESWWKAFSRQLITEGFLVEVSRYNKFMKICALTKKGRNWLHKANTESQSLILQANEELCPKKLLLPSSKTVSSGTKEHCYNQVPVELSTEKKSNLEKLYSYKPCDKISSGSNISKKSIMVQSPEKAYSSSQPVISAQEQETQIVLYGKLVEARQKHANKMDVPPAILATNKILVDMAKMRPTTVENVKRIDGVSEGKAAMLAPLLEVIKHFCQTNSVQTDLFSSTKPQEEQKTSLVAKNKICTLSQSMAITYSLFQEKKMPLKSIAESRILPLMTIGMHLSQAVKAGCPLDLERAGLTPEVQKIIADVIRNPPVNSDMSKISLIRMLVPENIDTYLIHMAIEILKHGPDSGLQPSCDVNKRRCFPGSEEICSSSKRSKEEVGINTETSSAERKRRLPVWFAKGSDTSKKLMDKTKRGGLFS
Sequence of hWRN(519-1227)_C-H3CV-GFP-10His (Q14191 519-1227): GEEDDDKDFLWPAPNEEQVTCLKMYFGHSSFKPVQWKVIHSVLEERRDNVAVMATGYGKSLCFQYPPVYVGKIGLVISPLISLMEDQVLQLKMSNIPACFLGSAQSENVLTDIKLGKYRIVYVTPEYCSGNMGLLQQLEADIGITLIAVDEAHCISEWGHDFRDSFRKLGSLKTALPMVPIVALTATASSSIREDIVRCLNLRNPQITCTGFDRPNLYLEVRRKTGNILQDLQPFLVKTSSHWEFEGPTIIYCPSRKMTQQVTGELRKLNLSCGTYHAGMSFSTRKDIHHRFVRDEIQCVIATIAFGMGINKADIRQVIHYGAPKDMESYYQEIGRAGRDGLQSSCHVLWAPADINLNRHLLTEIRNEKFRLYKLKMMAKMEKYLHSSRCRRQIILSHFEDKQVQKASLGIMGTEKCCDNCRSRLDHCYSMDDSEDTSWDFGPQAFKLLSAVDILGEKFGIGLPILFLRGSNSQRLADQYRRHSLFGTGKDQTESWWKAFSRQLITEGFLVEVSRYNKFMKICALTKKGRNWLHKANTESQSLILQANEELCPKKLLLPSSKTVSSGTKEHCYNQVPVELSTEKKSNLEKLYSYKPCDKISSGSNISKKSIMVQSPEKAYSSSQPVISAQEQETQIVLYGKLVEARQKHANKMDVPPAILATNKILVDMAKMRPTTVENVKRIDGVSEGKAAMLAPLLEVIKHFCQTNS

Broadly, the GI50 is the concentration that inhibits growth by half. As for `C[C@@H](/C=C/S(C)(=O)=O)NC(=O)c1cnc(C2CC2)nc1Oc1ccccc1` [Example 18, (S,E)-2-cyclopropyl-N-(4-(methylsulfonyl)but-3-en-2-yl)-4-phenoxypyrimidine-5-carboxamide], the IC50 is 6840 nM in assay [1], 1530 nM in assay [2] and 1100 nM in assay [4] (setting [6]). Besides, the figures for the GI50 in assay [3] and in assay [5] were greater than 10000 nM and 380 nM, respectively.
Taken in the same sequence, the figures for `C[C@@H](/C=C/S(C)(=O)=O)NC(=O)c1cnc(C2CCCC2)nc1Oc1cc(F)cc(F)c1` [Example 116, (S,E)-2-cyclopentyl-4-(3,5-difluorophenoxy)-N-(4-(methylsulfonyl)but-3-en-2-yl)pyrimidine-5-carboxamide] were 22300 nM, 1500 nM, 2200 nM, greater than 10000 nM and 2500 nM.
In the case of `CC(C)(C)c1ncc(C(=O)N2CC(=CS(C)(=O)=O)C2)c(Oc2ccccc2)n1` [Example 189, (2-(tert-butyl)-4-phenoxypyrimidin-5-yl)(3-((methylsulfonyl)methylene)azetidin-1-yl)methanone], the IC50 worked out at 640 nM in assay [1], 100 nM in assay [2] and 241 nM in assay [4]. The GI50 in assay [3] is greater than 13800 nM; in assay [5], 102 nM.
As to `CCc1ncc(C(=O)NC/C=C/S(C)(=O)=O)c(Oc2ccccc2)n1` [Example 12, (E)-2-ethyl-N-(3-(methylsulfonyl)allyl)-4-phenoxypyrimidine-5-carboxamide], the results for the IC50 in assay [1], in assay [2] and in assay [4] (setting [6]) were greater than 100000 nM, 50000 nM and 14000 nM, respectively. Moreover, the results for the GI50 in assay [3] and in assay [5] were greater than 10000 nM and 8900 nM, respectively.
Taken in the same sequence, the figures for `C[C@@H](/C=C/S(C)(=O)=O)NC(=O)c1cc(C#N)c(C2CCCC2)nc1Oc1ccccc1` [Example 163, (S,E)-5-cyano-6-cyclopentyl-N-(4-(methylsulfonyl)but-3-en-2-yl)-2-phenoxynicotinamide] were 1760 nM, 560 nM, 740 nM, 3900 nM and 400 nM.
`CC[C@@H](/C=C/S(C)(=O)=O)NC(=O)c1cnc(C2CCCC2)nc1Oc1ccccc1` [Example 6, (S,E)-2-cyclopentyl-N-(1-(methylsulfonyl)pent-1-en-3-yl)-4-phenoxypyrimidine-5-carboxamide]: the IC50 in assay [1] amounted to 5000 nM; in assay [2] it was 200 nM; in assay [4] (setting [6]) it was 439 nM. The GI50 in assay [3] was 11800 nM; in assay [5], 214 nM.
The like results for `CS(=O)(=O)/C=C/[C@@H](NC(=O)c1cnc(C(F)(F)C2CC2)nc1Oc1ccccc1)C1CC1` [Example 224, (S,E)-N-(1-cyclopropyl-3-(methylsulfonyl)allyl)-2-(cyclopropyldifluoromethyl)-4-phenoxypyrimidine-5-carboxamide] were, in that order, 93.2 nM, 8.75 nM, 48.3 nM, 13600 nM and 17 nM.
Taken in the same sequence, the figures for `CS(=O)(=O)/C=C/[C@@H](NC(=O)c1cnc(C2(C(F)(F)F)CC2)nc1Oc1ccccc1)C1CC1` [Example 102, (S,E)-N-(1-cyclopropyl-3-(methylsulfonyl)allyl)-4-phenoxy-2-(1-(trifluoromethyl)cyclopropyl)pyrimidine-5-carboxamide] were 530 nM, 160 nM, 130 nM, 4140 nM and 81.8 nM.
The like results for `C[C@@H](/C=C/S(C)(=O)=O)NC(=O)c1cnc(CC2CC2)nc1Oc1ccccc1` [Example 35, (S,E)-2-(cyclopropylmethyl)-N-(4-(methylsulfonyl)but-3-en-2-yl)-4-phenoxypyrimidine-5-carboxamide] were, in that order, 5000 nM, 290 nM, 1010 nM, 18100 nM and 171 nM.
As to `C[C@@H](/C=C/S(C)(=O)=O)NC(=O)c1cnc(C2CCCCC2)nc1Oc1ccccc1` [Example 77, (S,E)-2-cyclohexyl-N-(4-(methylsulfonyl)but-3-en-2-yl)-4-phenoxypyrimidine-5-carboxamide], the IC50 stood at 26000 nM in assay [1], 1140 nM in assay [2] and 1500 nM in assay [4] (setting [6]). For the same compound, the GI50 in assay [3] is greater than 5000 nM; in assay [5], 430 nM.
Take `C[C@@H](/C=C/S(C)(=O)=O)NC(=O)c1cnc(NC2CCCC2)nc1Oc1ccccc1` [Example 164, (S,E)-2-(cyclopentylamino)-N-(4-(methylsulfonyl)but-3-en-2-yl)-4-phenoxypyrimidine-5-carboxamide]: the IC50 in assay [1] is greater than 100000 nM; in assay [2] it was 21400 nM; in assay [4] (setting [6]), 12000 nM. The GI50 is greater than 10000 nM in assay [3] and 7100 nM in assay [5].
Taken in the same sequence, the figures for `CS(=O)(=O)/C=C/[C@@H](NC(=O)c1cnc(C(F)(F)C(F)(F)F)nc1Oc1ccccc1)C1CC1` [Example 84, (S,E)-N-(1-cyclopropyl-3-(methylsulfonyl)allyl)-2-(perfluoroethyl)-4-phenoxypyrimidine-5-carboxamide] were 200 nM, 16 nM, 80 nM, 8780 nM and 51.1 nM.
Taken in the same sequence, the figures for `CS(=O)(=O)/C=C/[C@@H](NC(=O)c1cnc(C2(F)CC2)nc1Oc1ccccc1)C1CC1` [Example 100, (S,E)-N-(1-cyclopropyl-3-(methylsulfonyl)allyl)-2-(1-fluorocyclopropyl)-4-phenoxypyrimidine-5-carboxamide] were 853 nM, 150 nM, 174 nM, 24400 nM and 66 nM.
